Measured values as given in patent publication US20250179103A1, “6-OXODECAHYDROPYRROLO[1,2-A][1,5]DIAZOCINE AND 6-OXODECAHYDRO-4H-PYRROLO[2,1-D][1,5]THIAZOCINE DERIVATIVES AS STAT3 AND STAT6 MODULATORS FOR THE TREATMENT OF CANCER AND INFLAMMATORY CONDITIONS” (Recludix Pharma, Inc., priority 2022, published 2025).
pIC50: −log10 of the molar value.

What was measured:
[1] = test system: pY641-STAT6 in Peripheral Blood Mononuclear Cells (PBMC); test: MSD-pSTAT-PBMC Assay (pSTAT6, IL-4 stimulated); type: cell-based, Human; details: compound 3 hrs, then 1 ng/mL IL-4 for 10 min
Procedure, shortened: (§1)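 Phospho-STAT readout used MSD electrochemiluminescence with total STAT3 or STAT6 capture in lysates of cryopreserved human PBMCs. Cells had 3 h compound exposure before a 10 min cytokine pulse: IL-6 10 ng/mL for pSTAT3, IL-4 1 ng/mL for pSTAT6. IC50 came from background-subtracted, DMSO-normalised signal, with categories A≤100 nM up to D>3 μM.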

[2] = test system: pY705-STAT3 in Peripheral Blood Mononuclear Cells (PBMC); test: MSD-pSTAT-PBMC Assay (pSTAT3, IL-6 stimulated); type: cell-based, Human; details: compound 3 hrs, then 10 ng/mL IL-6 for 10 min
Procedure, shortened: as §1

SMILES | pIC50 ([1]; Homo sapiens) | pIC50 ([2]; Homo sapiens) | pIC50 [1] | pIC50 [2]
CC(=O)N1CC[C@H]2CC[C@@H](C(=O)N(C)c3ccc(OCCN(C)C)cc3)N2C(=O)[C@@H](NC(=O)c2cc3cc(C(F)(F)P(=O)(OCOC(=O)C(C)(C)C)OCOC(=O)C(C)(C)C)ccc3s2)C1 [Compound 327, ((((2-(((5S,8S, 10aR)-3-acetyl-8-((4-(2-(dimethyl-amino)ethoxy)phenyl) (methyl)carbamoyl)-6-oxodecahydro-pyrrolo[1,2-a][1,5]diazocin-5-yl)carbamoyl)benzo[b]thiophen-5-yl)difluoro-methyl)phos-phoryl)bis(oxy)) bis(methylene) bis(2,2-dimethylpro-panoate)] | < 5.52 | < 5.52 |  | 
CNC(=O)[C@@H]1CC[C@@H]2CCN(C(=O)c3n[nH]c4ccc(C)cc34)C[C@H](NC(=O)c3ccc4ccc(C(F)(F)P(=O)(OCOC(=O)OC(C)C)OCOC(=O)OC(C)C)cc4c3)C(=O)N21 [Compound 328, (((difluoro(7-(((5S,8S,10aR)-3-(5-methyl-1H-indazole-3-carbonyl)-8-(methylcarbamoyl)-6-oxodecahydro-pyrrolo[1,2-a][1,5]diazocin-5-yl)carbamoyl)naphthalen-2-yl)methyl)phosphoryl)bis(oxy))bis(methylene) diisopropylbis(carbonate)] | 6.00 to 7.00 | < 5.52 |  | 
CNC(=O)[C@@H]1CC[C@@H]2CCN(C(=O)c3n[nH]c4ccc(C)cc34)C[C@H](NC(=O)c3ccc4ccc(C(F)(F)P(=O)(OCCSC(=O)CC(C)C)OCCSC(=O)CC(C)C)cc4c3)C(=O)N21 [Compound 329, S,S′-((((difluoro(7-(((5S,8S,10aR)-3-(5-methyl-1H-indazole-3-carbonyl)-8-(methylcarbamoyl)-6-oxodecahydropyrrolo[1,2-a][1,5]diazocin-5-yl)carbamoyl)naphthalen-2-yl)methyl)phosphoryl)bis(oxy))bis(ethane-2,1-diyl)) bis(3-methylbutanethioate)] | ≥ 7.00 | 5.52 to 6.00 |  | 
Cc1ccc2[nH]nc(C(=O)N3CC[C@H]4CC[C@@H](C(=O)N(C)C)N4C(=O)[C@@H](NC(=O)c4ccc5ccc(C(F)(F)P(=O)(OCCSC(=O)CC(C)C)OCCSC(=O)CC(C)C)cc5c4)C3)c2c1 [Compound 331, S,S′-(((((7-(((5S,8S,10aR)-8-(dimethylcarbamoyl)-3-(5-methyl-1H-indazole-3-carbonyl)-6-oxodecahydropyrrolo[1,2-a][1,5]diazocin-5-yl)carbamoyl)naphthalen-2-yl)difluoromethyl)phosphoryl)bis(oxy))bis(ethane-2,1-diyl))bis(3-methylbutanethioate)] | ≥ 7.00 | < 5.52 |  | 
CCCC(=O)SCCOP(=O)(OCCSC(=O)CCC)C(F)(F)c1ccc2ccc(C(=O)N[C@H]3CN(C(C)=O)CC[C@H]4CC[C@@H](C(=O)N5CC(c6cc[nH]c(=O)c6)CC56CC6)N4C3=O)cc2c1 (stereo partly drawn) [Compound 332, S,S′-(((((7-(((5S,8S,10aR)-3-acetyl-6-oxo-8-(6-(2-oxo-1,2-dihydropyridin-4-yl)-4-azaspiro[2.4]heptane-4-carbonyl)decahydropyrrolo[1,2-a][1,5]diazocin-5-yl)carbamoyl)naphthalen-2-yl)difluoromethyl)phosphoryl)bis(oxy))bis(ethane-2,1-diyl))dibutanethioate] | ≥ 7.00 | < 5.52 |  | 
CCCC(=O)SCCOP(=O)(OCOC(=O)OC(C)C)C(F)(F)c1ccc2ccc(C(=O)N[C@H]3CCN(CC(F)F)C[C@H]4CC[C@@H](C(=O)N5CC(c6cc[nH]c(=O)c6)CC56CC6)N4C3=O)cc2c1 (stereo partly drawn) [Compound 334, S-(2-((((7-(((5S,8S,10aR)-2-(2,2-difluoroethyl)-6-oxo-8-(6-(2-oxo-1,2-dihydropyridin-4-yl)-4-azaspiro[2.4]heptane-4-carbonyl)decahydropyrrolo[1,2-a][1,4]diazocin-5-yl)carbamoyl)naphthalen-2-yl)difluoromethyl) (((isopropoxycarbonyl)oxy)methoxy)phosphoryl)oxy)ethyl)butanethioate] | ≥ 7.00 | 6.00 to 7.00 |  | 
CCCC(=O)SCCOP(=O)(OCCSC(=O)CCC)C(F)(F)c1ccc2ccc(C(=O)N[C@H]3CCN(CC(F)F)C[C@H]4CC[C@@H](C(=O)N5CC(c6cc[nH]c(=O)c6)CC56CC6)N4C3=O)cc2c1 (stereo partly drawn) [Compound 335, S,S′-(((((7-(((5S,8S,10aR)-2-(2,2-difluoroethyl)-6-oxo-8-(6-(2-oxo-1,2-dihydropyridin-4-yl)-4-azaspiro[2.4]heptane-4-carbonyl)decahydropyrrolo [1,2-a][1,4]diazocin-5-yl)carbamoyl)naphthalen-2-yl)difluoromethyl)phosphoryl)bis(oxy))bis(ethane-2,1-diyl))dibutanethioate] | ≥ 7.00 | 5.52 to 6.00 |  | 
Cc1ccc2[nH]nc(C(=O)N3CC[C@H]4CC[C@@H](C(=O)N(C)C)N4C(=O)[C@@H](NC(=O)c4cc5cc(CP(=O)(N[C@@H](C)C(=O)OC(C)C)Oc6ccccc6)ccc5s4)C3)c2c1 (stereo partly drawn) [Compound 337, isopropyl(((2-(((5S,8S,10aR)-8-(dimethylcarbamoyl)-3-(5-methyl-1H-indazole-3-carbonyl)-6-oxodecahydropyrrolo[1,2-a][1,5]diazocin-5-yl)carbamoyl)benzo [b]thiophen-5-yl)methyl)(phenoxy)phosphoryl)-L-alaninate] | < 5.52 | < 5.52 |  | 
CC(C)(C)C(=O)OCOP(=O)(OCOC(=O)C(C)(C)C)C(F)(F)c1ccc2ccc(C(=O)NC3CN(CC(F)F)CCC4CCC(C(=O)N5CC(C#N)C(c6cc(F)cc(F)c6)C5)N4C3=O)cc2c1 [Compound 344, ((((7-(((5S,8S,10aR)-8-((rel-trans)-3-cyano-4-(3,5-difluorophenyl)pyrrolidine-1-carbonyl)-3-(2,2-difluoroethyl)-6-oxodecahydropyrrolo[1,2-a][1,5]diazocin-5-yl)carbamoyl)naphthalen-2-yl)difluoromethyl)phosphoryl)bis(oxy)) bis(methylene) bis(2,2-dimethylpropanoate)] |  |  | 6.00 to 7.00 | 5.52 to 6.00
CC(C)(C)C(=O)OCOP(=O)(OCOC(=O)C(C)(C)C)C(F)(F)c1ccc2ccc(C(=O)NC3CN(CC(F)F)CCC4CCC(C(=O)N5CCC(c6ccccc6)C(C#N)C5)N4C3=O)cc2c1 [Compound 345, ((((7-(((5S,8S,10aR)-8-((rel-trans)-3-cyano-4-phenylpiperidine-1-carbonyl)-3-(2,2-difluoroethyl)-6-oxodecahydropyrrolo[1,2-a][1,5]diazocin-5-yl)carbamoyl)naphthalen-2-yl)difluoromethyl)phosphoryl)bis(oxy)) bis(methylene) bis(2,2-dimethylpropanoate)] |  |  | 6.00 to 7.00 | 5.52 to 6.00
CCCC(=O)SCCOP(=O)(OCCSC(=O)CCC)C(F)(F)c1ccc2ccc(C(=O)N[C@H]3CN(CC(F)F)CC[C@H]4CC[C@@H](C(=O)N(C)C5CCN(S(C)(=O)=O)CC5)N4C3=O)cc2c1 [Compound 347, S,S′-(((((7-(((5S,8S,10aR)-3-(2,2-difluoroethyl)-8-(methyl(1-(methylsulfonyl)piperidin-4-yl)carbamoyl)-6-oxodeca hydropyrrolo[1,2-a][1,5]diazocin-5-yl)carbamoyl)naphthalen-2-yl)difluoromethyl)phosphoryl)bis(oxy))bis(ethane-2,1-diyl))dibutanethioate] | 6.00 to 7.00 | 6.00 to 7.00 |  | 
CC(C)(C)C(=O)OCOP(=O)(OCOC(=O)C(C)(C)C)C(F)(F)c1ccc2sc(C(=O)N[C@H]3CN(CC(F)F)CC[C@H]4CC[C@@H](C(=O)N5CC(C(=O)N6CCOCC6)C5)N4C3=O)cc2c1 [Compound 350, ((((2-(((5S,8S,10aR)-3-(2,2-difluoroethyl)-8-(3-(morpholine-4-carbonyl)azetidine-1-carbonyl)-6-oxodecahydropyrrolo[1,2-a][1,5]diazocin-5-yl)carbamoyl)benzo[b]thiophen-5-yl)difluoromethyl)phosphoryl)bis (oxy))bis(methylene) bis(2,2-dimethylpropanoate)] |  | ≥ 7.00 | 6.00 to 7.00 | 
CC(C)(C)C(=O)OCOP(=O)(OCOC(=O)C(C)(C)C)C(F)(F)c1ccc2sc(C(=O)N[C@H]3CN(CC(F)F)CC[C@H]4CC[C@@H](C(=O)N5CC(C(=O)N6CCOCC6)C5)N4C3=O)cc2c1 [Compound 351, ((((2-(((5S,8S,10aR)-3-(2,2-difluoroethyl)-8-(3-(morpholine-4-carbonyl)azetidine-1-carbonyl)-6-oxodecahydropyrrolo[1,2-a][1,5]diazocin-5-yl)carbamoyl)benzo[b]thiophen-5-yl)difluoromethyl)phosphoryl)bis (oxy))bis(methylene) bis(2,2-dimethylpropanoate)] |  |  | 5.52 to 6.00 | ≥ 7.00
CN(CC(C)(C)C#N)C(=O)[C@@H]1CC[C@@H]2CCN(CC(F)F)C[C@H](NC(=O)c3cc4cc(C(F)(F)P(=O)(OCOC(=O)C(C)(C)C)OCOC(=O)C(C)(C)C)ccc4s3)C(=O)N21 [Compound 352, ((((2-(((5S,8S,10aR)-8-((2-cyano-2-methylpropyl)(methyl)carbamoyl)-3-(2,2-difluoroethyl)-6-oxodecahydropyrrolo[1,2-a][1,5]diazocin-5-yl)carbamoyl)benzo[b]thiophen-5-yl)difluoromethyl)phosphoryl)bis (oxy))bis(methylene) bis(2,2-dimethylpropanoate)] | ≥ 7.00 | ≥ 7.00 |  | 
CCN1CC[C@H]2CC[C@@H](C(=O)N3CC(C(=O)N4CCOCC4)C3)N2C(=O)[C@@H](NC(=O)c2cc3cc(C(F)(F)P(=O)(OCOC(=O)C(C)(C)C)OCOC(=O)C(C)(C)C)ccc3s2)C1 [Compound 353, ((((2-(((5S,8S,10aR)-3-ethyl-8-(3-(morpholine-4-carbonyl)azetidine-1-carbonyl)-6-oxodecahydropyrrolo[1,2-a][1,5]diazocin-5-yl)carbamoyl)benzo[b]thiophen-5-yl)difluoromethyl)phosphoryl)bis(oxy)) bis(methylene) bis(2,2-dimethylpropanoate)] | < 5.52 | ≥ 7.00 |  | 
